Test results from patent publication US7877241B2, “System and method for identifying behavioral signatures” (University of Maryland, Baltimore, priority 2005, dated 2011).
Read-outs that look alike come from different tables or passages of the source.

Key:
C57BL/6J males = assay: SEE open-field test with pattern screening of mice injected with anxiolytic and anxiogenic drugs; format: in vivo, mouse; conditions: vs vehicle, diazepam 1 or 2 mg/kg, FG-7142 10 mg/kg, PTZ 20 mg/kg, i.p., training set only
Protocol: Behavioral data for the exemplary embodiments was gathered using the SEE open-field test described above. A mouse was introduced to a 2.5 meter circular pen and allowed to freely explore the pen for 30 minutes while the mouse's location was video-tracked and digitized at a rate of 25-30 Hz with a spatial resolution of approximately 1 cm. The tracked coordinates are stored on a storage device and imported into the SEE software. Using SEE software procedures the path is further smoothed and segmented into stops and progression segments. The data file of each animal thus included 45,000-54,000 data pints of its coordinates in the arena. Because small, local movements during stopping cannot be properly captured using available tracking technology, the analysis was limited to progression segments. Depending on the activity of the test subject, progression segments generally contain […] (100-1000 s) per animal. […]
FIG. 3 is a flow chart for a method of isolating candidate behavioral patterns according to an embodiment of the present invention. In step 302, the data points are quantified for a feature vector. In the embodiment of the present invention being described, each data point observed during the animal progression is quantified using seven “features” (variables) (t, d, v, a, j, h, c). […]
In step 306, the difference in relative frequencies are analyzed. […]

C57BL/6J mice = conditions: cited from earlier work
DBA/2J mice = conditions: cited from earlier work
[1] = tested on: behavioral effects of cocaine; conditions: in vivo; cited from earlier work
[2] = database having only C57BL/6J mice

In the case of `CN1C(=O)CN=C(c2ccccc2)c2cc(Cl)ccc21` [diazepam], the “relative frequency of performing first pattern (3,*,*,4,1,*,3)” value (C57BL/6J males; FIG. 6A) is given as “significantly reduced”, the “relative frequency of performing second pattern (3,1,4,*,3,5,*)” value (C57BL/6J males; FIG. 6B) is given as “dose-dependent effect” and the path curvature (C57BL/6J mice; [2]) is given as “dose-dependently decreased”.

For `CC(N)Cc1ccccc1` (centres unmarked) [amphetamine], the “increase in distance traveled” value (C57BL/6J mice; C57BL/6J strain (both strains)) is given as 3 fold, the path curvature (C57BL/6J mice; C57BL/6 mice, genotype comparison DBA/2J vs. C57BL/6J) is given as “decreased” and the path curvature (DBA/2J mice; BDA/2J mice (so in the source), genotype comparison DBA/2J vs. C57BL/6J) is given as “no effect”. For the same compound, the “increase in distance traveled” value (DBA/2J mice; DBA/2J strain (both strains)) was 3 fold.

For `CCCCN1[C@@H]2CC[C@H]1CC(OC(c1ccc(F)cc1)c1ccc(F)cc1)C2` (some centres unmarked) [JHW007], the “antagonizing the behavioral effects of cocaine” value [1] is given as “effective in antagonizing the behavioral effects of cocaine”.

In the case of `O=C(NCCCCN1CCN(c2cccc(Cl)c2Cl)CC1)c1ccc2c(c1)Cc1ccccc1-2` [NGB2904], the “antagonizing the behavioral effects of cocaine” value [1] is given as “effective in antagonizing the behavioral effects of cocaine”.

In the case of `C1CCc2nnnn2CC1` [pentylenetetrazole], the path curvature (C57BL/6J mice; [2]) is listed as “increased”.

For `CNC(=O)c1cc2c(cn1)[nH]c1ccccc12` [FG 7142, b-Carboline-3-carboxylic acid N-methylamide], the path curvature (C57BL/6J mice; [2]) is given as “increased”.
